Measurements reported in the NIST ThermoML archive (doi:10.1021/acs.jced.8b00692).

Test: xn = mol fraction of the nth substance listed
Conditions: 102 kPa, Liquid; for viscosity: Concentric cylinders viscometry; for speed of sound: Frequency=3 MHz, Single path-length method; for mass density: Vibrating tube method

CCCCCCCCC1CCCCC1 [octylcyclohexane] + CCCCCCCCCCCCCCCC
Conditions | mass density [kg/m3] | speed of sound [m/s] | viscosity [mPa·s]
293.15 K, x1 = 0.2001 | 780.29 | 1361.6 | 3.46
293.15 K, x1 = 0.3999 | 787.74 | 1366.8 | 3.46
293.15 K, x1 = 0.5002 | 791.67 | 1369.7 | 3.46
293.15 K, x1 = 0.6009 | 795.83 | 1372.6 | 3.44
293.15 K, x1 = 0.8006 | 804.62 | 1378.6 | 3.46
293.15 K, x1 = 1 | 814.14 | 1387 | 3.52
303.15 K, x1 = 0.2001 | 773.36 | 1324.4 | 2.75
303.15 K, x1 = 0.3999 | 780.82 | 1329.6 | 2.74
303.15 K, x1 = 0.5002 | 784.77 | 1332.1 | 2.75
303.15 K, x1 = 0.6009 | 788.93 | 1335 | 2.74
303.15 K, x1 = 0.8006 | 797.71 | 1341.3 | 2.76
303.15 K, x1 = 1 | 807.22 | 1349.1 | 2.79
313.15 K, x1 = 0.2001 | 766.44 | 1287.9 | 2.24
313.15 K, x1 = 0.3999 | 773.91 | 1293 | 2.23
313.15 K, x1 = 0.5002 | 777.87 | 1295.4 | 2.24
313.15 K, x1 = 0.6009 | 782.03 | 1298.3 | 2.23
313.15 K, x1 = 0.8006 | 790.79 | 1304.6 | 2.24
313.15 K, x1 = 1 | 800.29 | 1312.1 | 2.27
323.15 K, x1 = 0.2001 | 759.53 | 1252 | 1.85
323.15 K, x1 = 0.3999 | 767 | 1257.2 | 1.84
323.15 K, x1 = 0.5002 | 770.97 | 1259.5 | 1.85
323.15 K, x1 = 0.6009 | 775.12 | 1262.4 | 1.85
323.15 K, x1 = 0.8006 | 783.86 | 1268.6 | 1.85
323.15 K, x1 = 1 | 793.36 | 1275.9 | 1.88
333.15 K, x1 = 0.2001 | 752.62 | 1217.1 | 1.56
333.15 K, x1 = 0.3999 | 760.08 | 1222.1 | 1.55
333.15 K, x1 = 0.5002 | 764.05 | 1224.6 | 1.56
333.15 K, x1 = 0.6009 | 768.2 | 1227.3 | 1.56
333.15 K, x1 = 0.8006 | 776.93 | 1233.7 | 1.56
333.15 K, x1 = 1 | 786.42 | 1240.5 | 1.58
343.15 K, x1 = 0.2001 | 745.7 | – | 1.34
343.15 K, x1 = 0.3999 | 753.2 | – | 1.33
343.15 K, x1 = 0.5002 | 757.2 | – | 1.35
343.15 K, x1 = 0.6009 | 761.3 | – | 1.33
343.15 K, x1 = 0.8006 | 770 | – | 1.34
343.15 K, x1 = 1 | 779.5 | – | 1.36
353.15 K, x1 = 0.2001 | 738.8 | – | 1.15
353.15 K, x1 = 0.3999 | 746.3 | – | 1.15
353.15 K, x1 = 0.5002 | 750.2 | – | 1.15
353.15 K, x1 = 0.6009 | 754.3 | – | 1.15
353.15 K, x1 = 0.8006 | 763.1 | – | 1.16
353.15 K, x1 = 1 | 772.5 | – | 1.16
363.15 K, x1 = 0.2001 | 731.8 | – | 1.02
363.15 K, x1 = 0.3999 | 739.3 | – | 1
363.15 K, x1 = 0.5002 | 743.3 | – | 1.03
363.15 K, x1 = 0.6009 | 747.4 | – | 1.01
363.15 K, x1 = 0.8006 | 756.1 | – | 1.01
363.15 K, x1 = 1 | 765.5 | – | 1.04
373.15 K, x1 = 0.2001 | 724.8 | – | 0.887
373.15 K, x1 = 0.3999 | 732.3 | – | 0.889
373.15 K, x1 = 0.5002 | 736.3 | – | 0.89
373.15 K, x1 = 0.6009 | 740.4 | – | 0.895
373.15 K, x1 = 0.8006 | 749.1 | – | 0.897
373.15 K, x1 = 1 | 758.5 | – | 0.899

CCCCCCCCCC1CCCCC1 [nonylcyclohexane] + CCCCCCCCCCCCCCCC
Conditions | mass density [kg/m3] | speed of sound [m/s] | viscosity [mPa·s]
293.15 K, x1 = 0.2005 | 781.15 | 1363.9 | 3.58
293.15 K, x1 = 0.4001 | 789.28 | 1371.3 | 3.72
293.15 K, x1 = 0.5002 | 793.52 | 1375.2 | 3.79
293.15 K, x1 = 0.5998 | 797.86 | 1379.1 | 3.89
293.15 K, x1 = 0.8002 | 806.91 | 1387.3 | 4.07
293.15 K, x1 = 1 | 816.41 | 1397.2 | 4.34
303.15 K, x1 = 0.2005 | 774.24 | 1326.7 | 2.84
303.15 K, x1 = 0.4001 | 782.39 | 1334.2 | 2.95
303.15 K, x1 = 0.5002 | 786.64 | 1338.1 | 3
303.15 K, x1 = 0.5998 | 790.99 | 1342 | 3.06
303.15 K, x1 = 0.8002 | 800.06 | 1350.2 | 3.2
303.15 K, x1 = 1 | 809.57 | 1359.6 | 3.39
313.15 K, x1 = 0.2005 | 767.33 | 1290.2 | 2.3
313.15 K, x1 = 0.4001 | 775.51 | 1297.7 | 2.38
313.15 K, x1 = 0.5002 | 779.77 | 1301.6 | 2.43
313.15 K, x1 = 0.5998 | 784.12 | 1305.6 | 2.47
313.15 K, x1 = 0.8002 | 793.21 | 1313.8 | 2.58
313.15 K, x1 = 1 | 802.74 | 1322.9 | 2.72
323.15 K, x1 = 0.2005 | 760.43 | 1254.4 | 1.9
323.15 K, x1 = 0.4001 | 768.63 | 1261.9 | 1.96
323.15 K, x1 = 0.5002 | 772.9 | 1265.8 | 2
323.15 K, x1 = 0.5998 | 777.25 | 1269.8 | 2.03
323.15 K, x1 = 0.8002 | 786.35 | 1278.1 | 2.12
323.15 K, x1 = 1 | 795.8 | 1287.1 | 2.22
333.15 K, x1 = 0.2005 | 753.54 | 1219.5 | 1.6
333.15 K, x1 = 0.4001 | 761.74 | 1226.9 | 1.65
333.15 K, x1 = 0.5002 | 766.02 | 1230.9 | 1.68
333.15 K, x1 = 0.5998 | 770.38 | 1234.9 | 1.7
333.15 K, x1 = 0.8002 | 779.49 | 1243.4 | 1.77
333.15 K, x1 = 1 | 789.05 | 1252.2 | 1.85
343.15 K, x1 = 0.2005 | 746.6 | – | 1.38
343.15 K, x1 = 0.4001 | 754.9 | – | 1.4
343.15 K, x1 = 0.5002 | 759.2 | – | 1.44
343.15 K, x1 = 0.5998 | 763.6 | – | 1.45
343.15 K, x1 = 0.8002 | 772.7 | – | 1.5
343.15 K, x1 = 1 | 782.2 | – | 1.57
353.15 K, x1 = 0.2005 | 739.7 | – | 1.18
353.15 K, x1 = 0.4001 | 748 | – | 1.21
353.15 K, x1 = 0.5002 | 752.3 | – | 1.23
353.15 K, x1 = 0.5998 | 756.8 | – | 1.25
353.15 K, x1 = 0.8002 | 765.8 | – | 1.3
353.15 K, x1 = 1 | 775.4 | – | 1.35
363.15 K, x1 = 0.2005 | 732.7 | – | 1.05
363.15 K, x1 = 0.4001 | 741.1 | – | 1.06
363.15 K, x1 = 0.5002 | 745.4 | – | 1.09
363.15 K, x1 = 0.5998 | 749.8 | – | 1.09
363.15 K, x1 = 0.8002 | 758.9 | – | 1.13
363.15 K, x1 = 1 | 768.5 | – | 1.2
373.15 K, x1 = 0.2005 | 725.7 | – | 0.908
373.15 K, x1 = 0.4001 | 734.2 | – | 0.931
373.15 K, x1 = 0.5002 | 738.5 | – | 0.944
373.15 K, x1 = 0.5998 | 742.9 | – | 0.96
373.15 K, x1 = 0.8002 | 752 | – | 1
373.15 K, x1 = 1 | 761.6 | – | 1.03
